Results on one sequence are retold here after PMC9780942, “Antimicrobial Activity and Immunomodulatory Properties of Acidocin A, the Pediocin-like Bacteriocin with the Non-Canonical Structure” (Membranes, 2022).

One data set deals with L. lactis MK43. Briefly: Antibacterial activity assay (MIC), two-fold serial dilutions in liquid medium. The class given is cell-based. The note with it: MHB, 0.1% BSA, 37 °C, 24 h, no visible growth. An outline of the steps: (§1)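 MIC read as the minimum peptide concentration without visible growth, aided by 2 h resazurin (20 µg/mL) when needed. Cells from mid-log cultures (10^6 CFU/mL, 2x MHB or 3% TSB for Listeria) met two-fold bacteriocin dilutions in 0.1% BSA for 24 h at 37 °C with shaking.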

A further data set relates to B. licheniformis B-511. It is filed as cell-based. The note with it: 24 h. In outline:
as §1

In another data set the test system is B. subtilis B-886. The class given is cell-based. Conditions: B-886, 24 h. In outline: as §1
The next data set deals with L. lactis MK66. The class given is cell-based. The note with it: MK66, 24 h. An outline of the steps: as §1
The next data set has as its system M. luteus Ac-2229. It is filed as cell-based. Conditions: Ac-2229, 24 h. In outline: as §1
Another data set has as its system M. phlei Ac-1221. It is filed as cell-based. The note with it: 24 h. In outline:
as §1

For a further data set, the system named is L. monocytogenes EGD. Briefly: Agar diffusion (spot-on-lawn) assay. The class given is cell-based, Listeria monocytogenes. The note with it: 1–10 µg peptide spotted on 3% TSB agar, 37 °C, 24 h. The protocol:
Additionally, the activity of bacteriocins against L. monocytogenes EGD was qualitatively determined using agar diffusion (“spot-on-lawn”) assay. An amount of 5 µL of water solutions containing 1–10 µg of purified bacteriocins were applied to agar plates containing 3% TSB medium with mid-log phase culture of L. monocytogenes EGD diluted to a OD600 of about 0.001 (≅7 × 10^5 CFU/mL) and incubated overnight at 37 °C for 24 h. Antibiotic tetracycline (0.5 µg) was used as a positive control. The formation of visible zones of bacterial growth inhibition in places where bacteriocins were added indicated the presence of antimicrobial activity.
For orientation: In agar diffusion tests the substance spreads into inoculated agar from a disc or well.

Data set [1] is described as follows: Circular dichroism spectroscopy, secondary structure estimation. It is filed as physicochemical. Conditions: calculated from previously published CD spectra.

Positions of bridges follow the written chain, without caps; N, C: chain ends. No end group written: not given here.

For the sequence “TYYGNGVSCNKKGCSVDWGKAISIIGNNSAANLATGGAAGWKS (disulfide 9-14) [Avicin A]”, the “Minimum Inhibitory Concentration” value in the data set with L. lactis MK43, in the data set on B. licheniformis B-511, in the data set on B. subtilis B-886, in the data set on L. lactis MK66, in the data set on M. luteus Ac-2229 and in the data set with M. phlei Ac-1221 was above 32 µM throughout. In addition, the “Antimicrobial activity, zones of growth inhibition (qualitative)” value with L. monocytogenes EGD is “high activity”; in the data set with L. monocytogenes EGD (listed as avicin A) it was “presence of such activity”. In addition, the results for the Random in data set [1] (Aqueous solution), in data set [1] (DPC micelles) and in data set [1] (SDS micelles) were 39.3%, 27.8% and 30.4%, respectively. Further, the α-Helix in data set [1] (Aqueous solution) was 5.8%; in data set [1] (DPC micelles), 19.4%; in data set [1] (SDS micelles) it was 19.7%. The β-Sheet was 32.8% in data set [1] (Aqueous solution), 28.6% in data set [1] (DPC micelles) and 29.3% in data set [1] (SDS micelles). In addition, the results for the β-Turn in data set [1] (Aqueous solution), in data set [1] (DPC micelles) and in data set [1] (SDS micelles) were 22.1%, 21.6% and 23.1%, respectively.
